Assay results as given in publication PMC3907559, “KDT501, a Derivative from Hops, Normalizes Glucose Metabolism and Body Weight in Rodent Models of Diabetes” (PLoS ONE, 2014).

Assays:
[1] = tested on: Zucker Diabetic Fatty (ZDF) rats; assay: ZDF rats, oral dosing twice daily (weight, HbA1c, glucose, OGTT); assay type: in vivo, rat
Experimental: Male ZDF rats were obtained from Charles River Laboratories at approximately 7 weeks of age. Rats were maintained ad lib on Purina #5008 diet, delivering approximately 17% of calories from fat. Animals with fasting glucose between 150–350 mg/dL were randomized based on glucose and body weight. Test articles were prepared in 0.5% (w/v) methylcellulose + 0.2% (w/v) Tween 80 and given by oral gavage twice daily. Rats (10/group, 6 treatment groups) were administered KDT501 (100, 150, or 200 mg/kg), metformin (200 mg/kg), pioglitazone (30 mg/kg) or vehicle control for up to 32 days. Body weights and food intake were determined weekly. Blood was collected via tail bleed and whole blood glucose was measured on days 1, 8, 15 and 29. Blood was collected in 5 animals on days 15 and 29 for determination of glucose, insulin, lipids, hematocrit, and HbA1c. Animals were fasted overnight and OGTT was conducted on days 31 and 32 for determination of glucose and insulin levels. A second ZDF rat study was conducted and the resulting data on total cholesterol are presented. Statistical calculations were performed (JMP version, SAS Institute, Cary, NC). One-way ANOVA with Dunnett's test for post hoc determinations were used to compare vehicle treated control. Data were expressed as mean ± SEM.

[2] = tested on: ZDF rats; assay: Second ZDF rat study (total cholesterol, triglycerides in plasma); assay type: in vivo; settings: twice daily oral
Experimental: Blood was collected via tail bleed and whole blood glucose was measured on days 1, 8, 15 and 29. Blood was collected in 5 animals on days 15 and 29 for determination of glucose, insulin, lipids, hematocrit, and HbA1c. Animals were fasted overnight and OGTT was conducted on days 31 and 32 for determination of glucose and insulin levels. A second ZDF rat study was conducted and the resulting data on total cholesterol are presented. Statistical calculations were performed (JMP version, SAS Institute, Cary, NC). One-way ANOVA with Dunnett's test for post hoc determinations were used to compare vehicle treated control. Data were expressed as mean ± SEM.

[3] = tested on: DIO mice; assay: DIO mice, oral dosing twice daily (body fat, OGTT); assay type: in vivo, C57Bl6/J male mice; settings: for OGTT glucose AUC / OGTT insulin AUC: four weeks, vs controls
Experimental: C57Bl6/J male mice were 15 weeks old at the start of the experiment. In general, DIO models are initiated at an early age to evaluate effects on obesity. However, older, overweight mice were used in this study to represent middle-aged human subjects for the assessment of metabolic parameters associated with weight loss/diabetes. The mice were housed individually in cages at 72±4°F with a relative humidity of 30–70% with 12 hour light- dark cycle. High fat diet (40% Cal) TD95217 (Teklad Custom Research Diet) was used in this study. The test compounds were administered orally twice per day at 12 hour intervals (10 mL/kg) in 0.5% methylcellulose and 0.2% Tween 80 (w/v). Mice were randomly allocated on the basis of body weight to seven groups (N = 10/group), with five animals for the oral glucose tolerance test (OGTT) and 5 animals for the insulin tolerance test. […] Body weight and food consumption were determined weekly. After 30 days, the mice were fasted overnight, blood was drawn through the tail vein and baseline blood glucose was measured using a glucose analyzer. One hour later, mice were given an oral gavage of glucose solution in water (4 ml/kg, 2 g/kg) and blood samples were taken at 15, 30, 60, and 120 min to determine plasma glucose and insulin levels. Five days before the start of the experiment (t = −5 days) and again at the end of the experiment (t = 28 days), body fat was determined using QNMR. With the exception of the group treated with 200 mg/kg KDT501, 10 animals/group were used in the determinations. Insulin and HbA1c glucose levels were determined on days 1, 15 and 29. Statistical calculations were performed (JMP version, SAS Institute, Cary, NC). One-way ANOVA with Dunnett's test for post hoc determinations were used to compare vehicle treated control. Data were expressed as mean ± SEM.

[4] = tested on: human subcutaneous adipocytes; assay: Lipogenesis in human subcutaneous adipocytes (Oil Red O); assay type: cell-based; settings: 10 days, relative to DMSO
Experimental: (§1) Murine 3T3-L1 preadipocytes were maintained in DMEM supplemented with 10% FBS as described earlier. Cells were seeded at an initial density of approximately […] in 24-well plates. After confluence, cells were treated with KDT501 ([…]), rosiglitazone (10 µM), or DMSO on day 0. Cells were differentiated in differentiation medium consisting of 10% FBS/DMEM, 0.5 mM methylisobutylxanthine, 0.5 µM dexamethasone, and 10 µg/mL insulin. After two days, the medium was changed to progression medium consisting of 10 µg/mL insulin in 10% FBS/DMEM followed by 2 more days in maintenance medium consisting of 10% FBS/DMEM. KDT501 or rosiglitazone were included throughout the maturation phase (day 6/day 7). Human subcutaneous primary adipocytes were maintained as described for 3T3L1 adipocytes and treated with rosiglitazone (1 µM), KDT501 (10 µM), telmisartan (10 µM), DHA (10 µM) or PGJ2 (10 µM) for 10 days. Intracellular lipid was quantified with Oil O-Red staining using an adipogenesis assay kit from (Millipore, Billerica, MA). The medium was carefully discarded and washed twice with PBS. 300 µL Of Oil O-Red solution were added and incubated for 15 minutes at room temperature. The cells were washed, and bound dye was extracted and transferred to a 96 well plate. Absorbance was measured at 530 nm using a plate reader (Thermo Electron Corp.). Fold change relative to DMSO control was calculated from four independent wells for each condition. Data represent Mean ± SD.

[5] = tested on: THP-1 cells; assay: LPS-stimulated inflammatory mediators in THP-1 cells; assay type: cell-based, human; settings: 1 hour pre-incubation, LPS 1 µg/mL overnight, various concentrations (KDT501 6.25 to 50 µM)
Experimental: THP-1 cells were maintained in RPMI1640 in the presence of 10% serum according to manufacturer's instructions as described earlier. The cells were pre-incubated with various concentrations of test compounds (KDT501, rosiglitazone, telmisartan, DHA or PGJ2) in the presence of 1% serum medium for 1 hour, then stimulated with TNF-α (10 ng/ml) or LPS (1 µg/ml) overnight (16–20 hours. Cytokines were assayed using a Milliplex MAP human cytokine/chemokine kit and Luminex 100™ IS. Data were analyzed using a five-parameter logistic method and represented as Mean ±SD of four independent samples.

[6] = biological target: T1, PPARγ (Homo sapiens, UniProt P37231); assay: PPARγ reporter assay (Indigo Biosciences); assay type: cell-based
T1 sequence (P37231 1-505): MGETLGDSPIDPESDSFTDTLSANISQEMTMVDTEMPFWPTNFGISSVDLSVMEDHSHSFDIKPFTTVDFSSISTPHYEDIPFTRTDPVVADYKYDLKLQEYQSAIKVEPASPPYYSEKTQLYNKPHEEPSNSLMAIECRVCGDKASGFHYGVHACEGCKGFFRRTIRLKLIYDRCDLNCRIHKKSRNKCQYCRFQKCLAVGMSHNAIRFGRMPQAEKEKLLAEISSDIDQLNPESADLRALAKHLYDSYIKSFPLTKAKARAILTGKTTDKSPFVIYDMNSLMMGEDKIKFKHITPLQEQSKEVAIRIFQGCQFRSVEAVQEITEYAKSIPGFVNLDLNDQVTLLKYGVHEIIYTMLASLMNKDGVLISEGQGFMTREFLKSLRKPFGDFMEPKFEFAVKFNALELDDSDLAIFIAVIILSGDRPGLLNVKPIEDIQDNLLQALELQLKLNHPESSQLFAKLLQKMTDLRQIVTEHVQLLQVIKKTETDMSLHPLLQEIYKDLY
Experimental: PPAR assay kits from Indigo Biosciences and supplemented protocols were used in this study. Briefly, the reporter cells were treated in triplicates with various concentrations of KDT501 (25–0.78 µM). Telmisartan (10–0.625 µM), GW590735 (10–0.03 µM), and GW0742 (1–0.01 µM) were used as positive controls for PPARγ, PPARα and PPARδ respectively. […]. Cells were incubated for 20 hours as per the protocol and read using a luminometer (Victor2, Perkin Elmer). Average relative light unit (RLU) values from blank wells were subtracted from all the samples. The final data were compared with DMSO control and statistical analyses were performed using GraphPad Prism.

[7] = tested on: human subcutaneous adipocytes; assay: Gene expression profile and gene ontology in human subcutaneous adipocytes; assay type: cell-based; settings: 5 days
Experimental: Human subcutaneous primary adipocytes were maintained as described earlier. Cells were seeded at an initial density of approximately 2×10^6 cells in 6-well plates with PGM-2 medium (2 mL medium/well) and allowed to grow for 24 hr to confluence. Cells were treated with test compounds KDT501 (25 µM), rosiglitazone (1 µM), telmisartan (10 µM), or DMSO in adipocyte differentiating medium. The differentiation medium consisted of indomethacin, methylisobutylxanthine, dexamethasone, and insulin from PGM-2 single aliquots. After 5 days, the cells were washed in PBS, frozen in liquid nitrogen and shipped to Expression Analysis (Durham, NC) in dry ice. Three independent plates were used for each condition. RNA was extracted using the miRNeasy Mini Kit (Qiagen) as described by the manufacturer. RNA was isolated and expression profiling was performed using the Ambion WT Expression Kit (Life Technologies). Labeled target, which was hybridized to GeneChip Human Gene 1.0 ST Arrays (Affymetrix), was prepared essentially as described by the manufacturer. This cDNA was then used as a template for in vitro transcription using T7 RNA Polymerase to produce anti-sense RNA, which was then converted into single-stranded sense cDNA that was fragmented and labeled with biotin prior to hybridization to the GeneChip Arrays. […]

[8] = tested on: RAW264.7 cells; assay: LPS-activated PGE2 and NO in RAW264.7 cells; assay type: cell-based; settings: results not shown
[9] = tested on: 3T3L1 adipocytes; assay: Lipogenesis in 3T3L1 adipocytes (Oil Red O); assay type: cell-based, murine; settings: 10 µM, 6 days, relative to DMSO
Experimental: as §1, with “The cells were washed, and bound dye was extracted and transferred to a 96 well plate.” left out, “Data represent Mean ± SD.” left out

Compound: CN(C)C(=N)N=C(N)N [metformin]
- body weight ([1]; 200 mg/kg twice daily oral (metformin group)): gained weight
- total cholesterol in plasma ([2]; metformin group): neither metformin nor pioglitazone had this effect
- OGTT glucose AUC ([3]; 200 mg/kg twice per day oral): significantly reduced
- OGTT insulin AUC ([3]; 200 mg/kg twice per day oral): significantly reduced
- fat mass by the end of the study (QNMR) ([3]; 200 mg/kg twice per day oral, vs vehicle): Significant reduction

Compound: CC/C=C\C/C=C\C/C=C\C/C=C\C/C=C\C/C=C\CCC(=O)O [DHA]
- lipogenesis, fold increase ([4]; 10 µM): No significant changes
- LPS stimulated IL-6 [5]: inhibited these cytokines in a concentration-dependent manner
- LPS stimulated MCP-1 [5]: inhibited these cytokines in a concentration-dependent manner
- LPS stimulated RANTES [5]: inhibited these cytokines in a concentration-dependent manner

Compound: CCCCC/C=C/C=C1/C(=O)C=C[C@@H]1C/C=C\CCCC(=O)O [PGJ2, 5-deoxy-Δ12,14-PGJ2]
- lipogenesis, fold increase ([4]; 10 µM): 8.8 fold
- LPS stimulated IL-6 [5]: inhibited these cytokines in a concentration-dependent manner
- LPS stimulated MCP-1 [5]: inhibited these cytokines in a concentration-dependent manner
- LPS stimulated RANTES [5]: inhibited these cytokines in a concentration-dependent manner

Compound: CCc1ccc(CCOc2ccc(CC3SC(=O)NC3=O)cc2)nc1 (centres unmarked) [pioglitazone]
- HbA1c at the end of the study ([1]; 30 mg/kg twice daily oral): approximately half that of the vehicle-treated control
- body weight ([1]; 30 mg/kg twice daily oral): gained weight
- total cholesterol in plasma ([2]; pioglitazone group): neither metformin nor pioglitazone had this effect
- triglycerides in plasma ([2]; pioglitazone group, day 15 and day 30): reduced triglycerides
- OGTT glucose AUC ([3]; 30 mg/kg twice per day oral): significantly reduced
- OGTT insulin AUC ([3]; 30 mg/kg twice per day oral): significantly reduced

Compound: CCCc1nc2c(C)cc(-c3nc4ccccc4n3C)cc2n1Cc1ccc(-c2ccccc2C(=O)O)cc1 [telmisartan]
- EC50 [6]: 13.4 µM
- number of transcripts changed ([7]; 10 µM, 5 up and 3 down, common to rosiglitazone and KDT501): 8
- lipogenesis, fold increase ([4]; 10 µM): 3.5 fold
- LPS stimulated IL-6 [5]: inhibited these cytokines in a concentration-dependent manner
- LPS stimulated MCP-1 [5]: inhibited these cytokines in a concentration-dependent manner
- LPS stimulated RANTES [5]: inhibited these cytokines in a concentration-dependent manner

Compound: CN(CCOc1ccc(CC2SC(=O)NC2=O)cc1)c1ccccn1 (centres unmarked) [rosiglitazone]
- number of transcripts stimulated at least 2-fold ([7]; 1 µM): 62
- induction of LPS-activated PGE2 [8]: not with rosiglitazone
- lipogenesis, fold increase ([4]; 1 µM): 10.3 fold
- LPS stimulated IL-6 [5]: did not significantly affect
- LPS stimulated MCP-1 [5]: did not significantly affect
- LPS stimulated RANTES [5]: did not significantly affect
- lipogenesis, fold increase [9]: about 2.8 fold
